Source: US20090062255A1, “TUMOR-TARGETING EVALUATION METHODOLOGY AND COMPOUNDS RELATED THERETO” (THALLION PHARMACEUTICALS INC., priority 2007, published 2009)

Key:
[1] = tested on: GTP-bound Ras; assay: Ras activation pull-down assay (GST-Raf-RBD) in MCF-7 cells; format: cell-based, human; settings: 6 h treatment, EGF 5 min
Protocol: Following EGF induction, Ras is activated by a nucleotide exchange reaction that removes GDP and replaces it with GTP. Physiological levels of total cellular GTP-bound Ras can be detected with pull-down assays. MCF-7 cells were treated with increasing concentrations of ECO-4601 for 6 h and the Ras-MAPK signalling pathway was then induced with EGF. After a 5 min induction period, cells were lysed and incubated with a recombinant fusion protein that contains the isolated Ras Binding Domain of c-Raf-1 fused the gluthathione-S-transferese (GST; designated GST-Raf-RBD). The presence of Ras in the GST-Raf-RBD protein complex is resolved by western blotting. As expected, after EGF induction, an increase of Ras-GTP was observed.

[2] = tested on: genes involved in steroid biosynthesis, cholesterol transport/metabolism, signal transduction and apoptosis; assay: Gene expression in animals treated with Compound 1; settings: in vivo
[3] = tested on: GHD astrocytoma cell line; assay: MTT cytotoxicity, GHD cell line; format: cell-based; settings: 96 h, Human
Protocol: (§1) The cytotoxic activity of Compound 1 was further evaluated using a panel of brain tumor cell lines. This study was performed in collaboration with INSERM (Grenoble, France). Tumor cells (5,000 to 10,000 cells per well depending on their doubling time) were plated in 96-well flat-bottom plates and incubated for 24 hours before treatment. Tumor cells were then incubated for 96 hours with seven different concentrations of Compound 1: […], 0.01, and 0.001 μM. The in vitro cytotoxic activity was determined by a standard MTT assay.

[4] = tested on: Raf-1; assay: Raf-1 protein levels in MiaPaCa-2 tumors (Western blot); format: in vivo, mice; settings: 20 mg/kg SC daily for 5 days
Protocol: In this model, it was verified if there was an association between antitumor activity and inhibition of the Ras-MAPK pathway. In parallel to the antitumor study described above, two additional groups of 5 mice were treated SC with vehicle or 20 mg/kg ECO-4601, administered daily for 5 days. Animals from these two groups were sacrificed two hours on day 5 of treatment. As shown by quantification of Western blot analysis (FIG. 13), Raf-1 levels were reduced in MiaPaCa-2 tumors obtained from animals treated with ECO-4601 compared with the vehicle-treated animals.

[5] = tested on: human breast cell line MDA-MB-231; assay: Growth inhibitory MTT assay, MDA-MB-231; format: cell-based; settings: 72 hours, treated over control
Protocol: Growth inhibitory activity of ECO-4601 (Compound 1) and other dibenzodiazepinone analogs was evaluated on a panel of 4 human tumor cell lines: the human uterine sarcoma MES-SA and its doxorubicin-resistant P-glycoprotein over-expressing variant, MES-SA/DX5 as well as non-aggressive and highly aggressive human breast cell lines, MCF-7 and MDA-MB-231, respectively. These four cell lines were obtained from the American Type Culture Collection (Manassas, Va.) and cultured in RPMI plus 10% fetal bovine serum (FBS) and maintained at 37° C. with 5% CO2.
Exponentially growing cells (5,000 cells per well time; cell number determined with a hemocytometer) were seeded in 96-well flat-bottom plates and allowed to grow overnight. Cells were then incubated for 72 hours with three different concentrations of ECO-4601 or analogs: 30,10, and 3 μM. The in vitro growth inhibitory activity was determined by a commercial MTT assay. All measurements were done in quadruplicate and each experiment was performed 2-3 times. The lower the value, the more cytotoxic is the compound.

[6] = tested on: C6 glioblastoma cell line; assay: MTT cytotoxicity, C6 cell line; format: cell-based; settings: 96 h, Rat
Protocol: as §1

[7] = target: T1, human MAPK2 (ERK2) (Homo sapiens, UniProt P28482); assay: Upstate Kinase Profiler, MAPK2 (ERK2); format: biochemical
T1 construct: purchased Upstate (Kinase Profiler Service; Dundee, UK)
Protocol: Unlike current Ras signalling pathway inhibitors, ECO-4601 is not a direct kinase inhibitor. This was documented by evaluating the effect of ECO-4601 on human EGFR, c-RAF, MEK1, MAPK1 (ERK1) and MAPK2 (ERK2) kinase-activity (Upstate Kinase Profiler™ Service; Dundee, UK). ECO-4601 was tested at 0.5 μM and 5 μM in a final volume of 25 μL according to standard protocols developed by Upstate Ltd. Briefly, purified recombinant human enzymes were incubated with 25 mM Tris pH 7.5 containing EGTA, a specific substrate and γ-^32P-ATP. The reaction was initiated with MgATP mix and incubated for 40 minutes at RT. The reaction was stopped by the addition of 5 μL of a 3% phosphoric acid solution; aliquots were spotted on filters and counted. Detailed procedures are available on the Millipore Upstate website.

[8] = tested on: GHA oligodendroglioma cell line; assay: MTT cytotoxicity, GHA cell line; format: cell-based; settings: 96 h, Human
Protocol: as §1

[9] = tested on: Phospho-ERK (Ras-MAPK signaling pathway); assay: ERK phosphorylation ELISA assay (FACE) in MCF-7 cells; format: cell-based, human; settings: 6 hours, EGF 100 ng/mL for 5 min
Protocol: Human breast tumor MCF-7 cells were plated in 96-well culture plates (10,000 cells per well) in RPMI containing 10% FBS. After an overnight incubation, the medium is changed to low serum conditions (RPMI containing 0.1% FBS) for 18 h. Cells were then treated with ECO-4601 or selected analogs for 6 hours and then stimulated by the addition of EGF (100 ng/mL for 5 min) to induce the MAPK pathway. UO126 is a commercial inhibitor (Promega, Madison, Wis.) of mitogen-activated protein kinase kinase (MEK1/ERK). Following stimulation, cells were rapidly fixed, which preserved activation-specific protein modifications. Each well was then incubated with an antibody specific for Phospho-ERK or total ERK. After an one-hour incubation and several washes, cells were incubated with a secondary HRP-conjugated antibody followed by a developing solution that provided a colorimetric readout that is quantitative and reproducible. The Fast Activated Cell-based ELISA (FACE™) is commercially available (Active Motif, Carlsbad, Calif.).

[10] = tested on: 9L gliosarcoma cell line; assay: MTT cytotoxicity, 9L cell line; format: cell-based; settings: 96 h, Rat
Protocol: as §1

T1 sequence (P28482 whole entry): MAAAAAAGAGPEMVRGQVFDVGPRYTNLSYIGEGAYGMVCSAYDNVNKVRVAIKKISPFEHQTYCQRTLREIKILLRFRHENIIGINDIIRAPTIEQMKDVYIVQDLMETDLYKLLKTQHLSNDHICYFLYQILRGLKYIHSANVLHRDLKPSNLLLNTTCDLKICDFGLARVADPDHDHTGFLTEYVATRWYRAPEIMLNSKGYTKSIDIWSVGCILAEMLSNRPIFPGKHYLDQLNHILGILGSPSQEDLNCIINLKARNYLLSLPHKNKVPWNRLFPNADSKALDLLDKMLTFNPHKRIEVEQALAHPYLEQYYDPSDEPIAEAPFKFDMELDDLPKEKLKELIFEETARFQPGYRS

SMILES: CC(C)=CCC/C(C)=C/CC/C(C)=C/CN1C(=O)c2cccc(O)c2Nc2c(O)cc(O)cc21 [Compound 1, 10-farnesyl-4,6,8-trihydroxy-5,10-dihydrodibenzo[b,e][1,4]diazepin-11-one]
- effect on EGF-induced Ras activation (Ras-GTP) [1]: prevented EGF from activating Ras
- expression of several genes in treated animals [2]: increased expression
- IC50 [3]: 6.5 ± 2.9 µM
- Raf-1 levels in MiaPaCa-2 tumors versus vehicle-treated animals [4]: reduced
- % T/C at 10 μM [5]: 38%
- IC50 [6]: 4.3 ± 2.3 µM
- direct inhibition of ERK2 kinase activity (in words) ([7]; 0.5 μM and 5 μM): does not directly inhibit
- activity at 0.5 µM ([7]; MAPK2 (ERK2), 0.5 μM, % of enzyme activity over positive control, read-out: Kinase Activity (%) ± SD): 116 ± 1%
- activity at 5 µM ([7]; MAPK2 (ERK2), 5 μM, % of enzyme activity over positive control, read-out: Kinase Activity (%) ± SD): 110 ± 1%
- IC50 [8]: 1.6 ± 0.7 µM
- inhibition of phospho-ERK in the FACE ELISA assay [9]: inhibit the Ras-MAPK signaling pathway
- IC50 [10]: 8.3 ± 3.8 µM
